Tests used:
[1] = target: T1, Bovine lysyl oxidase (LOX) (Bos taurus, UniProt P33072); test: LOX inhibition assay, fluorometric (cadaverine / HRP / Amplex Red); type: biochemical; conditions: LOX extracted from bovine tendon; 30 min preincubation at 37° C.; 5 mM cadaverine; read-out: Activity Range LOX
T1 construct: from tissue; host or cells: adult bovine tendon
T1 sequence (P33072 170-418): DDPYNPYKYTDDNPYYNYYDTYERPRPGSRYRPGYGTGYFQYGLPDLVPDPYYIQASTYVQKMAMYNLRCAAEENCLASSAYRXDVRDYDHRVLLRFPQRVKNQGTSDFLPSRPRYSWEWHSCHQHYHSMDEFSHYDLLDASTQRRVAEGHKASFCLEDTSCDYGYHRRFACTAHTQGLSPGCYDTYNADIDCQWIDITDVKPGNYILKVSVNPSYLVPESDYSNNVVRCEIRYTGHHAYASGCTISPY
Description: The ability of compounds to inhibit prototypic LOX was determined using a fluorometric assay. This assay measures the activity of lysyl oxidases by coupling the reaction with horseradish peroxidase-catalyzed […]. The activity assay protocol uses cadaverine as substrate that releases hydrogen peroxide upon transformation by prototypic LOX enzyme present in the sample. Hydrogen peroxide was in turn detected using a red fluorescence substrate for HRP-coupled reactions (Amplex Red Enzyme Assays, Thermo Scientific Fisher). This lead to an increase in fluorescence that can be easily detected at Ex/Em=540/590 nm in a fluorescence microplate
Bovine lysyl oxidase (LOX) was extracted by adapting the methodology from [Kagan et al. 1979 and Borel et al. 2001.] from bovine tendon: Frozen adult bovine tendon was placed in room temperature water to defrost, and then membranes were removed and the remaining tissue cut into 1 cm pieces. The material was first passed through a course mesh meat grinder, and this mince was passed through a fine mesh grinder. The mince was homogenized in 10 v/w of buffer (16 mM sodium phosphate buffer pH 7.8, 400 mM NaCl) using a Waring blender. The homogenate was centrifuged at 15,000×g for 15 min at 4° C. After centrifugation, the supernatant was discarded and the pellets resuspended in 10 volumes of the same buffer. The mixture was blended again and centrifuged with the same settings. This time the pellets were blended in 3 volumes of extraction buffer (16 mM sodium phosphate buffer pH 7.8) and left to incubate at 4° C. for 2 h. After this time, the slurry was centrifuged with the same settings as described above. The supernatant was used in an ultrafiltration step to remove large proteins by size exclusion through a 30 kDalton filter (EMD Millipore). The filtrate was mixed with DEAE Sephadex (GE Healthcare), or passed over a MonoQ FPLC column. After two washes, one in 16 mM sodium phosphate buffer pH 7.8, 380 mM NaCl, and another in 16 mM sodium phosphate buffer pH 7.8, the proteins were eluted with 16 mM sodium phosphate pH 7.8, 10 μM CuSO4, and 4 M urea. Fractions containing Lox activity were collected and stored frozen at −70° C.
Final concentration in the LOX assay is shown in Table 6 below and performed in a total volume of […].
7 μl of freshly prepared reaction buffer were delivered to reaction wells. Compounds were resuspended in 100% DMSO at 10 mM and delivered into buffer using acoustic technology (Echo550; nanoliter range). A 2.85× solution of LOX protein in reaction buffer was prepared (“LOX solution”) and 7 μl of LOX solution was added into the reaction wells. Buffer only was added to column 1 for no protein control. Reactions were incubated for 30 minutes at 37° C. A 3.33× mixture of cadaverine, Amplex Red, and HRP (“Substrate/Detection Mix) was prepared and subsequently 6 μL of the mixture was added to each reaction well. Progress of reactions was monitored for 120 minutes at 37° C. using Clariostar plate reader (ex530-12, ems 600-40). For all activity assays, pan-LOX inhibitor CCT365623 (Tang et al, 2017) and LOXL2/LOXL3 inhibitor PAT-1251 (PharmaKea) were included as standards.
The slope of the linear portion of the progress curve was calculated using Clariostar software. Typical analysis interval was between 20-50 min, but varied between experiments. The background subtracted signals (No protein wells were considered as background) were converted to % activity relative to DMSO controls. Data was analyzed using GraphPad Prism 4 with “sigmoidal dose-response (variable slope)”; 4 parameters with Hill Slope. Constraints: Bottom=Constant equal to 0. Top=Must be less than 120.

[2] = target: T2, Recombinant human LOXL2 (lysyl oxidase like 2) (Homo sapiens, UniProt Q9Y4K0); test: LOXL2 inhibition assay, fluorometric (cadaverine / HRP / Amplex Red); type: biochemical; conditions: recombinant human LOXL2 130 nM; 30 min preincubation at 37° C.; 2.5 mM cadaverine; read-out: Activity Range LOXL2
T2 construct: purchased R&D systems
T2 sequence (Q9Y4K0 26-774): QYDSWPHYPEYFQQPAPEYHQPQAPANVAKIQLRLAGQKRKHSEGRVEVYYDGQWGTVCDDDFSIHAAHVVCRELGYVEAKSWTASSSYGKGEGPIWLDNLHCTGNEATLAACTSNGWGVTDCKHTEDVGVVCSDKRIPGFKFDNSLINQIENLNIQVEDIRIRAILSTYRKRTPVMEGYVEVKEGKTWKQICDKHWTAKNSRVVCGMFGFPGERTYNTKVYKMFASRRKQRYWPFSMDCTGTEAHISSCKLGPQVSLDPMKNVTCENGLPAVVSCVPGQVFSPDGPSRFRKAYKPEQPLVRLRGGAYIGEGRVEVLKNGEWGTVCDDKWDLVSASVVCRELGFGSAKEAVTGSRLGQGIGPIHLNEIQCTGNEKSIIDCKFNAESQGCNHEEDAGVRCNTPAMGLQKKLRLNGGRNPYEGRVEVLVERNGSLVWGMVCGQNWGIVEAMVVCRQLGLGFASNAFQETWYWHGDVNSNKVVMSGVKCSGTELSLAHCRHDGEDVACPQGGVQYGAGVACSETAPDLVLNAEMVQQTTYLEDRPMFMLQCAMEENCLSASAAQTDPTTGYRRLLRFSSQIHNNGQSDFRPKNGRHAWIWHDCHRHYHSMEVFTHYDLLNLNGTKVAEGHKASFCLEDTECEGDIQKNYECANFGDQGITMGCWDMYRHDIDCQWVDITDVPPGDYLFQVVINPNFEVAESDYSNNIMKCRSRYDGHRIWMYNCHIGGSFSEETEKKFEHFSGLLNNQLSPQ
Description: The ability of compounds to inhibit one or more of the lysyl oxidases LOXL2 and/or LOXL3 was determined using a fluorometric assay. This assay measures the activity of lysyl oxidases by coupling the reaction with horseradish peroxidase-catalyzed […]. The activity assay protocol uses cadaverine as substrate that releases hydrogen peroxide upon transformation by the specific LOX family enzyme present in the sample. Hydrogen peroxide is in turn detected using a red fluorescence substrate for HRP-coupled reactions (Amplex Red Enzyme Assays, Thermo Scientific Fisher). This leads to increase in fluorescence that can be easily detected at Ex/Em=540/590 nm in a fluorescence microplate reader.
Recombinant human LOXL2 (lysyl oxidase like 2) and recombinant human LOXL3 (lysyl oxidase like 3) were purchased from R&D systems and assays were performed in 1.2 M urea, 50 mM sodium borate buffer pH 8.0, and 10 mM CaCl.
5 μl of freshly prepared reaction buffer were delivered to reaction wells. Compounds were resuspended in 100% DMSO at 10 mM and delivered into buffer using acoustic technology (Echo550; nanoliter range). A 3× solution of LOXL2 or LOXL3 in reaction buffer was prepared (“enzyme solution”) and 5 μL of enzyme solution was added into the reaction wells. Buffer only was added to column 1 for no protein control. Reactions were incubated for 30 minutes at 37° C. A 3× mixture of cadaverine, Amplex Red, and HRP (“Substrate/Detection Mix) was prepared and subsequently 5 μL of the mixture added to each reaction well. Progress of reactions was monitored for 60 minutes at 37° C. using Clariostar plate reader (ex 530-12, ems 600-40). For all activity assays, pan-LOX inhibitor CCT365623 (Tang et al, 2017) and LOXL2/LOXL3 inhibitor PAT-1251 (PharmaKea) were included as standards.
For the data analysis, the slope of the linear portion of the progress curve was calculated using Clariostar software. Typical analysis interval was between 8-30 min, but varied between experiments. The background-subtracted signals (No protein wells are considered as background) were converted to % activity relative to DMSO controls. Data was analyzed using GraphPad Prism 4 with “sigmoidal dose-response (variable slope)”; 4 parameters with Hill Slope. Constraints: Bottom=Constant equal to 0. Top=Must be less than 120.

Row | IC50 [1] [nM] | IC50 [2] [nM] | SMILES
1 | 1000 to 30000 | ≤ 500 | CS(=O)(=O)N1C[C@@H](c2ccccc2)C[C@H]1CS(=O)(=O)c1ccc(CN)cc1 (racemic) [Example 26, cis-(4-(((1-(Methylsulfonyl)-4-phenylpyrrolidin-2-yl)methyl)sulfonyl)phenyl)methanamine 2,2,2-trifluoroacetate]
2 | 1000 to 30000 | ≤ 500 | CS(=O)(=O)N1C[C@@H](c2ccccc2)C[C@H]1CS(=O)(=O)c1cccc(CN)c1 (racemic) [Example 27, cis-(3-(((1-(Methylsulfonyl)-4-phenylpyrrolidin-2-yl)methyl)sulfonyl)phenyl)methanamine 2,2,2-trifluoroacetate]
3 | 1000 to 30000 | ≤ 500 | NCc1ccnc(S(=O)(=O)C[C@@H]2C[C@H](c3ccccc3F)CN2S(=O)(=O)N2CCOCC2)c1 (racemic) [Example 203, cis-(2-(((4-(2-fluorophenyl)-1-(morpholinosulfonyl)pyrrolidin-2-yl)methyl)sulfonyl)pyridin-4-yl)methanamine 2,2,2-trifluoroacetate]
4 | 1000 to 30000 | ≤ 500 | NCc1ccnc(S(=O)(=O)C[C@@H]2C[C@H](c3ccc(F)cc3)CN2S(=O)(=O)N2CCOCC2)c1 (racemic) [Example 204, cis-(2-(((4-(4-fluorophenyl)-1-(morpholinosulfony1)pyrrolidin-2-yl)methyl)sulfonyl)pyridin-4-yl)methanamine 2,2,2-trifluoroacetate]
5 | 1000 to 30000 | ≤ 500 | NCc1ccnc(S(=O)(=O)C[C@@H]2C[C@H](c3ccc(F)cc3)CN2S(=O)(=O)N2CCS(=O)(=O)CC2)c1 (racemic) [Example 206, cis-4-((2-(((4-(Aminomethyl)pyridin-2-yl)sulfonyl)methyl)-4-(4-fluorophenyl)pyrrolidin-1-yl)sulfonyl)thiomorpholine 1,1-dioxide 2,2,2-trifluoroacetate]
6 | ≤ 500 | ≤ 500 | NCc1ccc(S(=O)(=O)C[C@@H]2C[C@H](c3ccccc3F)CN2S(=O)(=O)N2CCOCC2)s1 (racemic) [Example 207, cis-(5-(((4-(2-Fluorophenyl)-1-(morpholinosulfonyl)pyrrolidin-2-yl)methyl)sulfonyl)thiophen-2-yl)methanamine 2,2,2-trifluoroacetate]
7 | ≤ 500 | ≤ 500 | NCc1ccc(S(=O)(=O)C[C@@H]2C[C@H](c3ccc(F)cc3)CN2S(=O)(=O)N2CCOCC2)s1 (racemic) [Example 208, cis-(5-(((4-(4-Fluorophenyl)-1-(morpholinosulfonyl)pyrrolidin-2-yl)methyl)sulfonyl)thiophen-2-yl)methanamine 2,2,2-trifluoroacetate]
8 | 1000 to 30000 | ≤ 500 | NCc1ccc(S(=O)(=O)C[C@@H]2C[C@H](c3ccc(F)cc3)CN2S(=O)(=O)N2CCS(=O)(=O)CC2)s1 (racemic) [Example 210, cis-4-((2-(((5-(Aminomethyl)thiophen-2-yl)sulfonyl)methyl)-4-(4-fluorophenyl)pyrrolidin-1-yl)sulfonyl)thiomorpholine 1,1-dioxide 2,2,2-trifluoroacetate]
9 | 1000 to 30000 | ≤ 500 | NCc1ccnc(OC[C@@H]2C[C@H](c3ccc(F)cc3)CN2S(=O)(=O)N2CCOCC2)c1 (racemic) [Example 212, cis-(2-((4-(4-Fluorophenyl)-1-(morpholinosulfonyl)pyrrolidin-2-yl)methoxy)pyridin-4-yl)methanamine 2,2,2-trifluoroacetate]
10 | – | ≤ 500 | NCc1ccnc(S(=O)(=O)C[C@@H]2C[C@H](C3CCCCC3)CN(S(=O)(=O)N3CCS(=O)(=O)CC3)C2)c1 (relative stereo) [Example 234, cis-4-((3-(((4-(Aminomethyl)pyridin-2-yl)sulfonyl)methyl)-5-cyclohexylpiperidin-1-yl)sulfonyl)thiomorpholine 1,1-dioxide 2,2,2-trifluoroacetate]
11 | – | ≤ 500 | NCc1ccnc(S(=O)(=O)C[C@H]2C[C@H](C3CCCCC3)CN(S(=O)(=O)N3CCS(=O)(=O)CC3)C2)c1 (relative stereo) [Example 234T, trans-4-((3-(((4-(Aminomethyl)pyridin-2-yl)sulfonyl)methyl)-5-cyclohexylpiperidin-1-yl)sulfonyl)thiomorpholine 1,1-dioxide 2,2,2-trifluoroacetate]
12 | – | ≤ 500 | NCc1ccnc(OC[C@H]2C[C@H](C3CCCCC3)CN(S(=O)(=O)N3CCOCC3)C2)c1 [Example 231T, trans-(2-(((3S,5R)-5-cyclohexyl-1-(morpholinosulfonyl)piperidin-3-yl)methoxy)pyridin-4-yl)methanamine]

From patent US12016864B2, “LOX enzyme inhibiting methods and compositions” (ANOVIA BIOSCIENCES, INC., priority 2021, dated 2024)
